Reference: patent US9598393B2, “Structural variants of mycolactones for use in modulating inflammation, immunity and pain” (priority 2011, dated 2017)

Assays:
[1] = test system: epithelial HeLa cell line; assay: Cytopathic activity, MTT assay (effect on global cell metabolic activity); type: cell-based, human
Protocol: (A) The cytopathic activity of mycolactone and variants was assessed in a [3-(4,5-Dimethylthiazol-2-yl)-2,5-Diphenyltetrazolium Bromide] (MTT) assay, using the epithelial HeLa cell line (ATCC®; CCL-2) as a model. Briefly, HeLa cells were plated in 96-well plates (10^4 cells/well) in Dulbecco's Modified Eagle culture medium supplemented with 10% fetal calf serum and 2 mM L-Glutamine. After 16 h, mycolactone or variants dilutions (final concentration 0.4-8 μM) were added to the wells, and incubated with the cells for 48 h, prior to the addition of MTT at 50 μg/ml. After 4 h, culture supernatants were removed and the formed formazan crystals dissolved in dimethyl sulfoxide (DMSO) for absorbance measurement.

HeLa cell = assay: Cytotoxicity by Trypan Blue dye exclusion (cell viability); type: cell-based, human
Protocol: (B) HeLa cell death being negligible in the concentration and time frame conditions used in (A), the cytotoxicity of 16 μM mycolactone and variants was evaluated after 48 h of incubation by cell exclusion of the Trypan Blue dye. Here, one part of Trypan blue (0.4% in phosphate-buffered saline PBS) was mixed with one part cell suspension (recovered from cell culture wells by trypsin treatment). The mixture was incubated for 3 min at room temperature and unstained (viable) and stained (nonviable) cells counted separately with a hemacytometer.

[2] = test system: IL-2 production by Jurkat T cells; assay: Immunosuppressive activity: activation-induced IL-2 production, ELISA; type: cell-based, human; details: for Cytokine production (M.A.: mean absorbance) (C) % relative to control / IC50: Jurkat T cells; for Cytokine production (M.A.: mean absorbance) (C) % relative to control: PMA + calcium ionophore, IL-2 ELISA; for IC50: Homo sapiens, IL-2, % inhibition relative to control, read-out: Cytokine production (C): IC50 value (concentration at which the compound induces 50% of mycolactone maximal activity); for Cytokine production (C): corresponding % of mycolactone activity (in brackets): relative to mycolactone (100%)
Protocol: (C) The immunosuppressive activity of mycolactone and variants was measured on Jurkat T cells (ATCC®; TIB-152™ clone E6-1), as models of human T lymphocytes. Cells were inoculated in 96-well plates (5×10^5 cells/well in RPMI 1640 medium supplemented with 10% fetal calf serum and 2 mM L-Glutamine) then incubated with serial dilutions of the various compounds for 4 h, and stimulated for 20 h with 50 ng/ml phorbol-12-myristate-13-acetate (PMA) and 1 μg/ml calcium ionophore. The production of IL-2 was then assessed in culture supernatants by ELISA.

[3] = test system: CD62-L receptor expression by human peripheral blood cells (PBLs); assay: T cell homing: expression of CD62-L receptor, flow cytometry; type: cell-based; details: for CD62-L expression (MFI: mean fluorescence intensity) (D) % relative to control / IC50: human PBLs, 72 h; for IC50: T-cell, % inhibition relative to control, read-out: CD62-L expression (D): IC50 value (concentration at which the compound induces 50% of mycolactone maximal activity); for CD62-L expression (D): corresponding % of mycolactone activity (in brackets): relative to mycolactone (100%)
Protocol: (D) The effect of mycolactone and variants on T cell homing was assessed through their inhibitory effect on the expression of CD62-L receptor by human peripheral blood cells (PBLs). Human PBLs were isolated from total blood by Ficoll density gradient centrifugation. They were incubated in 96-well plates (10^5 cells/well in RPMI 1640 medium supplemented with 10% fetal calf serum and 2 mM L-Glutamine) with mycolactone or variant for 72 h. Cells were then fixed for 20 min in 4% paraformaldehyde (PFA) and stained with an anti-CD62-L antibody coupled with phycoerythrin in a solution of PBS, BSA 0.5%, saponin 0.05%, then analysed by flow cytometry.

[4] = Formalin-induced acute pain model; type: in vivo; details: intraperitoneally 60 minutes before formalin; Mycolactone 0.5 mg/kg, variant 22 5 mg/kg
Protocol: The analgesic properties of Mycolactone and variant 22 were tested in the formalin-induced acute pain model (Encyclopedia of Psychopharmacology, Volume 2, p. 111).
Briefly, Mycolactone and variant 22 were administered intraperitoneally at 0.5 and 5 mg/kg respectively, 60 minutes before the subcutaneous injection of 10 μl of a 5% formalin solution of the right hind-leg. Two negative control groups, injected with PBS (neutral) or ethanol vehicle (vehicle) were tested in the same conditions. A group injected with 3 mg/kg morphin 15 minutes before formalin injection was used as a positive reference.
The time spent in licking/biting and the number of jumps during the early phase (0-5 min) and the late phase (10-40 min) were recorded, as indicators of acute and inflammatory pain, respectively. The graphs in FIG. 5 compare the global score of pain (rank sum of licking/biting time and jump number) in the five groups of animals (Mann-Whitney test on trimmed means; n≧6; *P<0.05 **P<0.01 vs. neutral; # P<0.05, # P<0.01 vs. vehicle.

Compound | Metabolic activity (MA: mean absorbance) (A) % relative to control ([1]; 0.4 μM, HeLa cells, 48 h, MTT) | Metabolic activity (MA: mean absorbance) (A) % relative to control ([1]; 4 μM, HeLa cells, 48 h, MTT) | Metabolic activity (MA: mean absorbance) (A) % relative to control ([1]; 8 μM, HeLa cells, 48 h, MTT) | Cytokine production (M.A.: mean absorbance) (C) % relative to control ([2]; 0.4 μM) | Cytokine production (M.A.: mean absorbance) (C) % relative to control ([2]; 4 μM) | Cytokine production (M.A.: mean absorbance) (C) % relative to control ([2]; 8 μM) | IC50 [2] | Cytokine production (C): corresponding % of mycolactone activity (in brackets) [2] | CD62-L expression (MFI: mean fluorescence intensity) (D) % relative to control ([3]; 4 μM) | CD62-L expression (MFI: mean fluorescence intensity) (D) % relative to control ([3]; 8 μM) | IC50 [3] | CD62-L expression (D): corresponding % of mycolactone activity (in brackets) [3] | also measured
CC(=C\C=C\C(C)=C\[C@H](O)[C@@H](O)C[C@H](C)O)/C=C(C)/C=C/C(=O)O[C@H]1CCCC(=O)O[C@@H](C(C)C)C/C=C/C[C@@H]1C [Compound 22, (6S,7S,9E,12R)-7-methyl-2-oxo-12-(propan-2-yl)-1-oxacyclododec-9-en-6-yl(2E,4E,6E,8E,10E,12S,13S,15S)-12,13,15-trihydroxy-4,6,10-trimethylhexadeca-2,4,6,8,10-pentaenoate] | 0% | 0% | 0% | 15% | 58% | 95% | 3 µM | 3.3% | 60% | 70% | 3.7 µM | 0.8% | cytopathic effect ([1]; at concentrations <16 μM): no cytotoxic nor cytopathic effect; cytotoxic effect (HeLa cell; at concentrations <16 μM): no cytotoxic nor cytopathic effect; reduction of IL-2 production ([2]; at concentrations >4 μM): significant reduction; reduction of CD62-L expression ([3]; at concentrations >4 μM): significant reduction; activity against inflammatory pain (global score of pain, late phase 10-40 min) [4]: effective
CC(=C/C=C/C(C)=C/[C@H](O)[C@@H](O)C[C@@H](C)O)C=C(C)/C=C/C(=O)O[C@H]1CCCC(=O)O[C@@H]([C@@H](C)C/C(C)=C/[C@@H](C)[C@H](O)C[C@@H](C)O)C/C=C/C[C@@H]1C (racemic) [Compound 20b, (6S,7S,9E,12R)-12-[(2S,4E,6R,7R,9R)-7,9-dihydroxy-4,6-dimethyldec-4-en-2-yl]-7-methyl-2-oxo-1-oxacyclododec-9-en-6-yl(2E,4E,6E,8E,10E,12S,13S,15R)-12,13,15-trihydroxy-4,6,10-trimethylhexadeca-2,4,6,8,10-pentaenoate] | 0% | 10% | 15% | 20% | 55% | 92% | 4 µM | 2.5% | 0% | 50% | 8 µM | 0.4% | IC50 ([1]; Homo sapiens, HeLa cells, 48 h, MTT, % inhibition relative to control, read-out: Metabolic activity (A): IC50 value (concentration at which the compound induces 50% of mycolactone maximal activity)): 15 µM; cytopathic activity, reduction compared to mycolactones A/B ([1]; human): 4 fold; Metabolic activity (A): corresponding % of mycolactone activity (in brackets) ([1]; relative to mycolactone (100%)): 23%; cytotoxicity compared to mycolactones A/B (HeLa cell; at 16 μM): equivalent cytotoxicity
